The target of experiment [1] is T1, isolated recombinant JAK1 kinase domain (Homo sapiens, UniProt P23458).
T1 construct: isolated recombinant JAK1 and JAK2 kinase domain
The experiment is described as follows: JAK enzyme assay (Caliper LabChip), JAK1. The experiment is classed as biochemical. The note with it: 1.5 nM JAK1, ATP 25 μM, 22° C., 30 minutes; Morrison tight binding model. On the procedure:
(§1) The activity of the isolated recombinant JAK1 and JAK2 kinase domain was measured by monitoring phosphorylation of a peptide derived from JAK3 (Val-Ala-Leu-Val-Asp-Gly-Tyr-Phe-Arg-Leu-Thr-Thr, fluorescently labeled on the N-terminus with 5-carboxyfluorescein) using the Caliper LabChip® technology (Caliper Life Sciences, Hopkinton, Mass.). To determine inhibition constants (Ki), compounds were diluted serially in DMSO and added to 50 μL kinase reactions containing purified enzyme (1.5 nM JAK1, or 0.2 nM JAK2), 100 mM HEPES buffer (pH 7.2), 0.015% Brij-35, 1.5 μM peptide substrate, ATP (25 μM), 10 mM MgCl2, 4 mM DTT at a final DMSO concentration of 2%. Reactions were incubated at 22° C. in 384-well polypropylene microtiter plates for 30 minutes and then stopped by addition of 25 μL of an EDTA containing solution (100 mM HEPES buffer (pH 7.2), 0.015% Brij-35, 150 mM EDTA), resulting in a final EDTA concentration of 50 mM. After termination of the kinase reaction, the proportion of phosphorylated product was determined as a fraction of total peptide substrate using the Caliper LabChip® 3000 according to the manufacturer's specifications. Ki values were then determined using the Morrison tight binding model (Morrison, J. F., Biochim. Biophys. Acta. 185:269-296 (1969); William, J. W. and Morrison, J. F., Meth. Enzymol., 63:437-467 (1979)) modified for ATP-competitive inhibition [Ki ═Ki,app/(1+[ATP]/Km,app)].

Experiment [2] deals with T2, isolated recombinant JAK2 kinase domain (Homo sapiens, UniProt O60674).
T2 construct: isolated recombinant JAK1 and JAK2 kinase domain
T2 sequence (O60674 849-1124 limits assumed): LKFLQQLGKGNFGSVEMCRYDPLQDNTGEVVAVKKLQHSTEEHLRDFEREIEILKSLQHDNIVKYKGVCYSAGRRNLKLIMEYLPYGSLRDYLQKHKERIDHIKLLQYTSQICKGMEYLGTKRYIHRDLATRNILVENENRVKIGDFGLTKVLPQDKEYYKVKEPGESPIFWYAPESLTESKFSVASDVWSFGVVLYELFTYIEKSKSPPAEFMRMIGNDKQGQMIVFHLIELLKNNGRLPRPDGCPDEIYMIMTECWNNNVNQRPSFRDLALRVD
The experiment is described as follows: JAK enzyme assay (Caliper LabChip), JAK2. The settings on record: 0.2 nM JAK2, ATP 25 μM, 22° C., 30 minutes; Morrison tight binding model. The format is biochemical. On the procedure:
as §1

Structures can show the parent of a compound that is named as a salt.

T1 sequence (P23458 875-1153 limits assumed): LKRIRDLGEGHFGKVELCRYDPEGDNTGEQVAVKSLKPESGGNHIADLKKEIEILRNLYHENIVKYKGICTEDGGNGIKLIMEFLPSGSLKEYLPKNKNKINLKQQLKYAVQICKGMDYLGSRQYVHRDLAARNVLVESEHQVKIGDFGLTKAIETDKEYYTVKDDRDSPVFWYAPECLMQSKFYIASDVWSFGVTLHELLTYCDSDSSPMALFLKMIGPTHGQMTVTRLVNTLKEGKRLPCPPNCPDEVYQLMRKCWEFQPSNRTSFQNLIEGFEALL

`OCC1(c2ccc(Cl)cc2)CCN(c2cccn3nc(Nc4cnn(CCN5CCOCC5)c4)nc23)CC1` [Compound 1-2, [4-(4-chlorophenyl)-1-[2-[[1-(2-morpholinoethyl)pyrazol-4-yl]amino]-[1,2,4]triazolo[1,5-a]pyridin-8-yl]-4-piperidyl]methanol; formic acid]: the Ki in experiment [1] stood at 0.52 nM; in experiment [2], 0.16 nM.
With `OCC1(c2ccc(Cl)cc2)CCN(c2cccn3nc(Nc4cnn(C5CCN(Cc6ccccc6)CC5)c4)nc23)CC1` [Compound 1-3, [1-[2-[[1-(1-benzyl-4-piperidyl)pyrazol-4-yl]amino]-[1,2,4]triazolo[1,5-a]pyridin-8-yl]-4-(4-chlorophenyl)-4-piperidyl]methanol; formic acid], the Ki in experiment [1] was determined as 0.63 nM; in experiment [2] it was 0.38 nM.
With `Cn1cc(Nc2nc3c(N4CCC(CCN5CCOCC5)(c5ccc(Cl)cc5)CC4)cccn3n2)cn1` [H, 8-[4-(4-chlorophenyl)-4-(2-morpholinoethyl)-1-piperidyl]-N-(1-methylpyrazol-4-yl)-[1,2,4]triazolo[1,5-a]pyridin-2-amine], the figures for the Ki in experiment [1] and in experiment [2] were 11 nM and 3.5 nM, respectively.
The like results for `CSc1ccc(C2(CC#N)CCN(c3cccn4nc(Nc5cnn(CCNC6COC6)c5)nc34)CC2)cc1` [P, 2-[4-(4-methylsulfanylphenyl)-1-[2-[[1-[2-(oxetan-3-ylamino)ethyl]pyrazol-4-yl]amino]-[1,2,4]triazolo[1,5-a]pyridin-8-yl]-4-piperidyl]acetonitrile] were, in that order, 2.4 nM and 0.72 nM.
For `CSc1ccc(C2(CC#N)CCN(c3cccn4nc(Nc5cnn(CCN6CCN(C)C(=O)C6)c5)nc34)CC2)cc1` [O, 2-[1-[2-[[1-[2-(4-methyl-3-oxo-piperazin-1-yl)ethyl]pyrazol-4-yl]amino]-[1,2,4]triazolo[1,5-a]pyridin-8-yl]-4-(4-methylsulfanylphenyl)-4-piperidyl]acetonitrile], in that order: 4.6 nM and 1 nM.
In the case of `Cn1cc(Nc2nc3c(N4CCC(CNCC(F)(F)F)(c5ccc(Cl)cc5)CC4)cccn3n2)cn1` [G, 8-[4-(4-chlorophenyl)-4-[(2,2,2-trifluoroethylamino)methyl]-1-piperidyl]-N-(1-methylpyrazol-4-yl)-[1,2,4]triazolo[1,5-a]pyridin-2-amine], the Ki in experiment [1] was found to be 10 nM; in experiment [2] it was 2.9 nM.
For the molecule `Cn1cc(Nc2nc3c(N4CCC(CO)(c5ccc(Cl)cc5)CC4)cccn3n2)cn1` [A, [4-(4-chlorophenyl)-1-[2-[(1-methylpyrazol-4-yl)amino]-[1,2,4]triazolo[1,5-a]pyridin-8-yl]-4-piperidyl]methanol], the results for the Ki in experiment [1] and in experiment [2] were 0.18 nM and 0.13 nM, respectively.
For `CN(C)C(=O)CN1CCC2(CC1)CN(C(=O)N1CC=C(c3cccn4nc(Nc5cnn(C)c5)nc34)CC1)C2` [I, N,N-dimethyl-2-[2-[4-[2-[(1-methylpyrazol-4-yl)amino]-[1,2,4]triazolo[1,5-a]pyridin-8-yl]-3,6-dihydro-2H-pyridine-1-carbonyl]-2,7-diazaspiro[3.5]nonan-7-yl]acetamide], the Ki in experiment [1] was 190 nM; in experiment [2] it was 86 nM.
As to `OCC1(c2ccc(Cl)cc2)CCN(c2cccn3nc(Nc4cnn(CCCN5CCOCC5)c4)nc23)CC1` [Compound 1-10, [4-(4-chlorophenyl)-1-[2-[[1-(3-morpholinopropyl)pyrazol-4-yl]amino]-[1,2,4]triazolo[1,5-a]pyridin-8-yl]-4-piperidyl]methanol; formic acid], the Ki in experiment [1] amounted to 0.33 nM; in experiment [2], 0.16 nM.
Consider `CN(C)CCCn1cc(Nc2nc3c(N4CCC(CO)(c5ccc(Cl)cc5)CC4)cccn3n2)cn1` [Compound 1-8, [4-(4-chlorophneyl)-1-[2-[[1-[3-(dimethylamino)propyl]pyrazol-4-yl]amino]-[1,2,4]triazolo[1,5-a]pyridin-8-yl]-4-piperidyl]methanol; formic acid], for which the inhibitory constant (Ki) in experiment [1] amounted to 0.56 nM; in experiment [2], 0.22 nM.
`CSc1ccc(C2(CC#N)CCN(c3cccn4nc(Nc5cnn(CCN6CCN(C7CCOCC7)CC6)c5)nc34)CC2)cc1` [M, 2-[4-(4-methylsulfanylphenyl)-1-[2-[[1-[2-(4-tetrahydropyran-4-ylpiperazin-1-yl)ethyl]pyrazol-4-yl]amino]-[1,2,4]triazolo[1,5-a]pyridin-8-yl]-4-piperidyl]acetonitrile]: the Ki in experiment [1] is 3.3 nM; in experiment [2] it was 0.96 nM.
On to `Cn1cc(Nc2nc3c(N4CCC(c5ccc(Cl)cc5)(C(O)CN5CCOCC5)CC4)cccn3n2)cn1` (racemic) [B, 1-[4-(4-chlorophenyl)-1-[2-[(1-methylpyrazol-4-yl)amino]-[1,2,4]triazolo[1,5-a]pyridin-8-yl]-4-piperidyl]-2-morpholino-ethanol], for which the Ki in experiment [1] was determined as 0.97 nM; in experiment [2], 0.58 nM.
Take `OCC1(c2ccc(Cl)cc2)CCN(c2cccn3nc(Nc4cnn(Cc5ccncc5)c4)nc23)CC1` [Compound 1-6, [4-(4-chlorophenyl)-1-[2-[[1-(4-pyridylmethyl)pyrazol-4-yl]amino]-[1,2,4]triazolo[1,5-a]pyridin-8-yl]-4-piperidyl]methanol; formic acid]: the Ki in experiment [1] is 0.45 nM; in experiment [2], 0.12 nM.
With `CNCCn1cc(Nc2nc3c(-c4ccc(OCc5ccc(OCCOC)nc5)cc4)cccn3n2)cn1` [Compound 3-2, 8-[4-[[6-(2-methoxyethoxy)-3-pyridyl]methoxy]phenyl]-N-[1-[2-(methylamino)ethyl]pyrazol-4-yl]-[1,2,4]triazolo[1,5-a]pyridin-2-amine], the Ki in experiment [1] amounted to 2.4 nM; in experiment [2] it was 0.86 nM.
Consider `CNCCCn1cc(Nc2nc3c(-c4ccc(OCc5ccc(OCCOC)nc5)cc4)cccn3n2)cn1` [Compound 3-5, 8-[4-[[6-(2-methoxyethoxy)-3-pyridyl]methoxy]phenyl]-N-[1-[3-(methylamino)propyl]pyrazol-4-yl]-[1,2,4]triazolo[1,5-a]pyridin-2-amine], for which the Ki in experiment [1] was determined as 0.74 nM; in experiment [2] it was 0.28 nM.
As to `CSc1ccc(C2(CO)CCN(c3cccn4nc(Nc5cnn(CCN6CCC(N7CCOCC7)CC6)c5)nc34)CC2)cc1` [J, [4-(4-methylsulfanylphenyl)-1-[2-[[1-[2-(4-morpholino-1-piperidyl)ethyl]pyrazol-4-yl]amino]-[1,2,4]triazolo[1,5-a]pyridin-8-yl]-4-piperidyl]methanol], the Ki is 1.7 nM in experiment [1] and 0.47 nM in experiment [2].
As to `OCC1(c2ccc(Cl)cc2)CCN(c2cccn3nc(Nc4cnn(C5CCNCC5)c4)nc23)CC1` [Compound 1-5, [4-(4-chlorophenyl)-1-[2-[[1-(4-piperidyl)pyrazol-4-yl]amino]-[1,2,4]triazolo[1,5-a]pyridin-8-yl]-4-piperidyl]methanol; formic acid], the Ki in experiment [1] was determined as 0.23 nM; in experiment [2], 0.12 nM.
On to `OCC1(c2ccc(Cl)cc2)CCN(c2cccn3nc(Nc4cnn(CC5CCNCC5)c4)nc23)CC1` [Compound 1-1, [4-(4-chloropenyl)-1-[2-[[1-(4-piperidylmethyl)pyrazol-4-yl]amino]-[1,2,4]triazolo[1,5-a]pyridin-8-yl]-4-piperidyl]methanol; hydrochloride], for which the Ki amounted to 0.21 nM in experiment [1] and 0.045 nM in experiment [2].

Values taken from patent US20180327402A1, “TRIAZOLOPYRIDINE COMPOUNDS AND METHODS OF USE THEREOF” (Genentech, Inc., priority 2015, published 2018).
